{"source": "patent US20250345356A1", "about": "“TIRAPAZAMINE COMPOSITIONS AND METHODS” (priority 2024, published 2025)", "origin": "cited, not measured here", "key": {"[1]": {"conditions": "cited from earlier work"}, "HCC": {"system": "HCC", "conditions": "cited from earlier work"}}, "note": "Several values for one entry are separate records, joined by “and”; a condition that tells them apart may be missing. Equal entries are not always repeated."}
{"compound": "Nc1n[n+]([O-])c2ccccc2[n+]1[O-]", "note": "[tirapazamine, 3-amino-1,2,4-benotriazine-1,4-di-N-oxide]", "values": [{"measurement": "tumor responses", "setting": "[1]; 36-450 mg/m^2 i.v.", "value": "no tumor responses were seen"}, {"measurement": "AUC of tirapazamine at which ototoxicity was not observed", "setting": "[1]; human, in vivo, 330 mg/m2", "value": "≤ 1252", "unit": "µg·min/mL"}, {"measurement": "Maximally Tolerated Dose (MTD)", "setting": "[1]; human, in vivo, iv", "value": 390, "unit": "mg/m^2"}, {"measurement": "dose-limiting toxicities", "setting": "[1]; human, in vivo, iv", "value": "reversible deafness and tinnitus"}, {"measurement": "duration of cramps", "setting": "[1]; human, in vivo, iv", "value": "1 to 14", "unit": "days"}, {"measurement": "mean Vdss", "setting": "[1]; human, in vivo, iv", "value": "39 ± 12.5", "unit": "L"}, {"measurement": "mean clearance (±SD)", "setting": "[1]; human, in vivo, iv", "value": "624.2 ± 157", "unit": "mL/min"}, {"measurement": "onset of muscle cramps after the start of infusion", "setting": "[1]; human, in vivo, iv", "value": "2.4 to 24", "unit": "h"}, {"measurement": "increase in AUC(0-inf)", "setting": "[1]; human, in vivo", "value": "~19", "unit": "fold"}, {"measurement": "necrosis in the HCC within the territory of HAL", "setting": "HCC; Day 1 post-treatment, tirapazamine 3 mg/kg, doxorubicin 10 mg/kg, transient left HAL", "value": "more than 99%"}, {"measurement": "necrosis of HCCs in the territory of the left HAL", "setting": "HCC; Day 7, 3 mg/kg with left HAL, H&E", "value": "90-99%"}, {"measurement": "tumor necrosis, individual mice", "setting": "HCC; Day 7, three mice, 3 mg/kg with left HAL, 3 mg/kg", "value": "90% and 99% (2×)"}, {"measurement": "necrosis in the tumor-free part of the left lobe of the liver", "setting": "HCC; Day 7, with left HAL", "value": "no evidence of necrosis"}]}
